From patent US11229626B2, “Synergistic nutritional compositions for treating seizures and chronic inflammatory diseases” (CELAGENEX RESEARCH (INDIA) PVT. LTD., priority 2020, dated 2022)

Test system: PTZ induced rat model
Assay: PTZ (pentylene-tetrazole) induced convulsions, anti-convulsant activity in Wistar rats
Format: in vivo
Settings: male Wistar rats, n=6 per group, 60 mg/kg PTZ intraperitoneally 1 hr after test item; for Straub Tail / Clonic Convulsions / Stupor / Tonic Convulsions: doses per Table 1; for Clonic Convulsions / Stupor / Tonic Convulsions: mean; for Recovery: outcome recovery or death
Experimental: The purpose of this study is to evaluate the effect of anti-convulsant activity of the test compound in Wistar Rats.
The systemic administration of PTZ is one of the most commonly employed methods for anti-convulsant screening. The preference has been given to this model due to its ease of performance, reliability, ease of expressing results and the shorter time-period to produce convulsions.
60 mg/kg of PTZ was injected per body weight, intraperitoneally 1 hr after the test item administration.
All animals were acclimatized for five days and seizures were induced by administering 60 mg/kg PTZ per body weight, 1 hr after test item administration. Normal control group was injected with phosphate buffer solution.
As Group 1 (Vehicle control), Group 2 served as diseased control, Group 3 was Reference standard and Group 4, Group 5 and Group 6 served as test substance. The dose was administered for short term (single day administration) or long term (14 or 21 days) after acclimatization.
The time was recorded for convulsion phase clonic, tonic and stupor after test administration. All values were expressed as MEAN±STD. The significant difference between the treatment and control group was estimated using oneway ANOVA with Dennett's test. All results of the statistical analysis were summarized in separate tables.

SMILES | Straub Tail | Clonic Convulsions | Stupor | Tonic Convulsions | Recovery
C[N+](C)(C)[C@@H](Cc1c[nH]c(=S)[nH]1)C(=O)O [L-Ergothioneine, L-ergothioneine] | Absent | 4.66 s | 70.33 s | 8.00 s | Recovery
CCCCCCCCCC(=O)OCC(COC(=O)CCCCCCCCC)OC(=O)CCCCCCCCC [Tridecanoin] | Absent | 5.00 s | 74.16 s | 7.66 s | Recovery
CC[C@@H](C(N)=O)N1CCCC1=O [Levetiracetam, reference compound] | Absent | 3.33 s | 56.16 s | 5.83 s | Recovery
